PMC10845205, “Discovery of novel antibacterial agent for the infected wound treatment: all-hydrocarbon stapling optimization of LL-37” (Theranostics, 2024)
≈ marks a conversion by molar mass, not a printed value. Read-outs that look alike come from different tables or passages of the source. Positions of bridges follow the written chain, without caps; N, C: chain ends. Non-standard residues stand in square brackets, D forms with d. Residues, ends and D or L forms follow the SMILES beside them. R8 = C=CCCCCCC[C@@](C)(N)C(=O)O; S5 = C=CCCC[C@](C)(N)C(=O)O

Legend:
A. baumannii = test system: A. baumannii
Method: (§1) According to the protocol of Clinical & Laboratory Standards Institute, the minimum inhibitory concentration (MIC) of the linear and stapled peptides against a panel of gram-positive and gram-negative bacteria was determined by the broth microdilution method. […]
(§2) Bacterial strains and culture
(§3) Bacterial type stains ATCC 25923 S. aureus, ATCC 12228 S. epidermidis, ATCC […]
(§4) aeruginosa and ATCC 13883 K. pneumoniae were obtained from Shanghai Bioresource Collection Center. The bacterial culture medium was purchased from Oxoid and autoclaved according to the instructions from manufacturer. The isolated strains were cultured in Mueller Hinton II broth and continuously shaken at 140 rpm for 18 hours to the middle of the exponential growth phase at 37 °C with an OD value of 0.4-0.5.
(§5) Bacterial suspensions with an OD value of 0.1, approximately […], were then diluted for further assays.
(§6) The minimal inhibition concentration (MIC) of the linear and stapled peptides was determined using the microbroth dilution method from the Clinical and Laboratory Standards Institute (CLSI)[2, 3]. Bacterial suspensions of 10 6 CFU/mL were prepared in MH-II broth and peptide solutions at varying concentrations were prepared in phosphate buffer saline (PBS). Then 50 μL peptide solution and 50 μL bacterial suspension were mixed in a 96 -well plate. Plates were incubated for 24 hours at 37 °C.
(§7) 10 μL AlamarBlue cell viability reagent (ThermoFisher Scientific, UK) was added to each well, then the plate was re -incubated for a further 2 hours at 37 °C. The MIC was recorded as the minimum concentration of peptides required to completely in hibit bacteria growth. For serum stability assessment, the peptide solutions were pre - incubated with 50% human serum for 4 h before the MIC determination. Experiments were performed in 3 independent measurements. […]

E. coli = test system: E. coli
Method: as §1, §2, §3, §4, §5, §6, §7

E. faecalis = test system: E. faecalis
Method: as §1, §2, §3, §4, §5, §6, §7

K. pneumoniae = test system: K. pneumoniae
Method: as §1, §2, §3, §4, §5, §6, §7

P. aeruginosa = test system: P. aeruginosa
Method: as §1, §2, §3, §4, §5, §6, §7

S. aureus = test system: S. aureus
Method: as §1, §2, §3, §4, §5, §6, §7

S. epidermidis = test system: S. epidermidis
Method: as §1, §2, §3, §4, §5, §6, §7

Serum stability assay = format: in vitro ADME, human; settings: for metabolised at 1 h, 0.4 mg/mL: human serum in pH 7.4 PBS, 37 °C, RP-HPLC, read-out: fraction hydrolyzed within 1 h; for TD50 (time at which 50% of the peptide is degraded in the presence of serum): human serum, 2 mg/mL peptide in pH 7.4 PBS mixed with serum 1:4, 37 °C, up to 48 h, RP-HPLC UV 220 nm, 3 independent measurements
Source text: Maintaining high stability and presenting high compatibility in the complex physiological environment are important criterions for the clinical translation of AMPs. […] The derivatives were mixed with human serum in pH 7.4 PBS, simulating the degradation process of peptides by proteases in vivo. The percentages of intact derivatives were monitored and determined with time according to the PR-HPLC. […]
Serum stability of the linear and stapled peptides was examined by RP -HPLC as previously described. 2 mg/mL peptide solution was prepared in pH 7.4 PBS and incubated with human serum (Gemini, USA) to the final volume ratio of 1:4 at 37 °C.
At various time intervals, 50 μL mixture was added to 50 μL ethanol to terminate the enzymatic hydrolysis. After centrifugation at 10,000 rpm for 10 minutes under 4 °C, […]
the supernatant was collected and analyzed by RP-HPLC, with a UV detector monitored at 220 nm. Record the peak area of the intact peptide and calculate the percentage of remaining peptide based on the integrated area as, Peptide remaining (%) = peak area of remaining peptide/peak area of intact peptide×100%. […]

| Molecule | MIC A. baumannii (A. baumannii; 24 h) [µg/mL] | MIC E. coli (E. coli; 24 h) [µg/mL] | MIC E. faecalis (E. faecalis; 24 h) [µg/mL] | MIC K. pneumoniae (K. pneumoniae; 24 h) [µg/mL] | MIC P. aeruginosa (P. aeruginosa; 24 h) [µg/mL] | MIC S. aureus (S. aureus; 24 h) [µg/mL] | MIC S. epidermidis (S. epidermidis; 24 h) [µg/mL] | MIC A. baumannii (A. baumannii; CLSI broth microdilution, MH-II broth, 24 h 37 °C, AlamarBlue, ATCC 19606, 3 independent measurements) [µg/mL] | MIC E. coli (E. coli; CLSI broth microdilution, MH-II broth, 24 h 37 °C, AlamarBlue, ATCC 25922, 3 independent measurements) [µg/mL] | MIC E. faecalis (E. faecalis; CLSI broth microdilution, MH-II broth, 24 h 37 °C, AlamarBlue, ATCC 29212, 3 independent measurements) [µg/mL] | MIC K. pneumoniae (K. pneumoniae; CLSI broth microdilution, MH-II broth, 24 h 37 °C, AlamarBlue, ATCC 13883, 3 independent measurements) [µg/mL] | MIC P. aeruginosa (P. aeruginosa; CLSI broth microdilution, MH-II broth, 24 h 37 °C, AlamarBlue, ATCC 27853, 3 independent measurements) [µg/mL] | MIC S. aureus (S. aureus; CLSI broth microdilution, MH-II broth, 10^6 CFU/mL, 24 h 37 °C, AlamarBlue, ATCC 25923, 3 independent measurements) [µg/mL] | MIC S. epidermidis (S. epidermidis; CLSI broth microdilution, MH-II broth, 24 h 37 °C, AlamarBlue, ATCC 12228, 3 independent measurements) [µg/mL] | metabolised at 1 h, 0.4 mg/mL (Serum stability assay) [%] | TD50 (time at which 50% of the peptide is degraded in the presence of serum) (Serum stability assay) [h] |
| --- | --- | --- | --- | --- | --- | --- | --- | --- | --- | --- | --- | --- | --- | --- | --- | --- |
| CC[C@H](C)[C@@H]1NC(=O)[C@H](CCCNC(=N)N)NC(=O)[C@H](CCC(N)=O)NC(=O)[C@H](C(C)C)NC(=O)[C@H]([C@@H](C)CC)NC(=O)[C@](C)(NC(=O)[C@H](CCCCN)NC(C)=O)CCCCCCC=CCCC[C@@](C)(C(=O)N[C@@H](Cc2ccccc2)C(=O)N[C@@H](CC(C)C)C(=O)N[C@@H](CCCNC(=N)N)C(N)=O)NC(=O)[C@H](CCCCN)NC1=O [KR-12 (R2, D9)] (Ac-K[R8]IVQRIK[S5]FLR-NH2; staple 2-9) | 128 (≈ 78.3 µM) | 128 (≈ 78.3 µM) | 256 (≈ 157 µM) | 128 (≈ 78.3 µM) | 256 (≈ 157 µM) | 256 (≈ 157 µM) | 64 (≈ 39.2 µM) |  |  |  |  |  |  |  |  |  |
| CC[C@H](C)[C@@H]1NC(=O)[C@H](CCCNC(=N)N)NC(=O)[C@](C)(NC(=O)[C@@H](NC(=O)[C@@H](NC(=O)[C@H](CCCNC(=N)N)NC(=O)[C@H](CCCCN)NC(C)=O)[C@@H](C)CC)C(C)C)CCCCCCC=CCCC[C@@](C)(C(N)=O)NC(=O)[C@H](CC(C)C)NC(=O)[C@H](Cc2ccccc2)NC(=O)[C@H](CC(=O)O)NC(=O)[C@H](CCCCN)NC1=O [KR-12 (Q5, R12)] (Ac-KRIV[R8]RIKDFL[S5]-NH2; staple 5-12) | 64 (≈ 39.5 µM) | 32 (≈ 19.7 µM) | 256 (≈ 158 µM) | 64 (≈ 39.5 µM) | 64 (≈ 39.5 µM) | 64 (≈ 39.5 µM) | > 256 |  |  |  |  |  |  |  |  |  |
| polymyxin b [PMB, reference compound] |  |  |  |  |  |  |  | 4 | 4 | 256 | 16 | 8 | 64 | 128 |  |  |
| CC[C@H](C)[C@@H]1NC(=O)[C@H](CCCNC(=N)N)NC(=O)[C@](C)(NC(C)=O)CCCCCCC=CCCC[C@@](C)(C(=O)N[C@@H](CC(=O)O)C(=O)N[C@@H](Cc2ccccc2)C(=O)N[C@@H](CC(C)C)C(=O)N[C@@H](CCCNC(=N)N)C(N)=O)NC(=O)[C@H]([C@@H](C)CC)NC(=O)[C@H](CCCNC(=N)N)NC(=O)[C@H](CCC(N)=O)NC(=O)[C@H](C(C)C)NC1=O [KR-12 (K1, K8)] (Ac-[R8]RIVQRI[S5]DFLR-NH2; staple 1-8) | > 256 | >256 | > 256 | > 256 | > 256 | > 256 | > 256 |  |  |  |  |  |  |  |  |  |
| CC[C@H](C)[C@@H]1NC(=O)[C@H](CCCNC(=N)N)NC(=O)[C@H](CCC(N)=O)NC(=O)[C@H](C(C)C)NC(=O)[C@](C)(NC(=O)[C@H](CCCNC(=N)N)NC(=O)[C@H](CCCCN)NC(C)=O)CCCCCCC=CCCC[C@@](C)(C(=O)N[C@@H](CC(C)C)C(=O)N[C@@H](CCCNC(=N)N)C(N)=O)NC(=O)[C@H](CC(=O)O)NC(=O)[C@H](CCCCN)NC1=O [KR-12 (I3, F10)] (Ac-KR[R8]VQRIKD[S5]LR-NH2; staple 3-10) | 32 (≈ 19.5 µM) | 64 (≈ 38.9 µM) | 256 (≈ 156 µM) | 64 (≈ 38.9 µM) | 128 (≈ 77.8 µM) | 64 (≈ 38.9 µM) | 256 (≈ 156 µM) |  |  |  |  |  |  |  |  |  |
| Ac-KRIVQRIKDFLR-NH2 [KR-12, reference compound] | > 256 | 128 | 128 | > 256 | 256 | 32 | > 256 |  |  |  |  |  |  |  | > 50 | 0.78 |
| CC[C@H](C)[C@H](NC(=O)[C@H](CCCCN)NC(=O)[C@H](CCC(=O)O)NC(=O)[C@H](CCCCN)NC(=O)[C@H](CO)NC(=O)[C@H](CCCCN)NC(=O)[C@H](CCCNC(=N)N)NC(=O)[C@H](Cc1ccccc1)NC(=O)[C@H](Cc1ccccc1)NC(=O)[C@H](CC(=O)O)NC(=O)CNC(=O)[C@H](CC(C)C)NC(=O)[C@@H](N)CC(C)C)C(=O)NCC(=O)N[C@@H](CCCCN)C(=O)N[C@@H](CCC(=O)O)C(=O)N[C@@H](Cc1ccccc1)C(=O)N[C@@H](CCCCN)C(=O)N[C@@H](CCCNC(=N)N)C(=O)N[C@H](C(=O)N[C@H](C(=O)N[C@@H](CCC(N)=O)C(=O)N[C@@H](CCCNC(=N)N)C(=O)N[C@H](C(=O)N[C@@H](CCCCN)C(=O)N[C@@H](CC(=O)O)C(=O)N[C@@H](Cc1ccccc1)C(=O)N[C@@H](CC(C)C)C(=O)N[C@@H](CCCNC(=N)N)C(=O)N[C@@H](CC(N)=O)C(=O)N[C@@H](CC(C)C)C(=O)N[C@H](C(=O)N1CCC[C@H]1C(=O)N[C@@H](CCCNC(=N)N)C(=O)N[C@H](C(=O)N[C@@H](CCC(=O)O)C(=O)N[C@@H](CO)C(=O)O)[C@@H](C)O)C(C)C)[C@@H](C)CC)C(C)C)[C@@H](C)CC [LL-37] |  |  |  |  |  |  |  |  |  |  |  |  |  |  | > 50 | 0.58 |
| CC[C@H](C)[C@@H]1NC(=O)[C@H](CCCNC(=N)N)NC(=O)[C@H](CCC(N)=O)NC(=O)[C@](C)(NC(=O)[C@@H](NC(=O)[C@H](CCCNC(=N)N)NC(=O)[C@H](CCCCN)NC(C)=O)[C@@H](C)CC)CCCCCCC=CCCC[C@@](C)(C(=O)N[C@@H](CCCNC(=N)N)C(N)=O)NC(=O)[C@H](Cc2ccccc2)NC(=O)[C@H](CC(=O)O)NC(=O)[C@H](CCCCN)NC1=O [KR-12 (V4, L11)] (Ac-KRI[R8]QRIKDF[S5]R-NH2; staple 4-11) | 128 (≈ 75.6 µM) | 128 (≈ 75.6 µM) | > 256 | 128 (≈ 75.6 µM) | 128 (≈ 75.6 µM) | 128 (≈ 75.6 µM) | 256 (≈ 151 µM) |  |  |  |  |  |  |  |  |  |
